From ChEMBL document CHEMBL5223156, “Synthesis and biological evaluation of novel N-benzyltriazolyl-hydroxamate derivatives as selective histone deacetylase 6 inhibitors” (Bioorg Med Chem, 2023) come the findings set out here.

The source made the active and inactive calls. The rule behind the calls is not given here.

One data set has as its target Histone deacetylase 1 (Homo sapiens, UniProt Q13547). Put plainly: Inhibition of human recombinant HDAC1 using fluorogenic substrate measured after 30 mins.
The target in the next data set is T1, Histone deacetylase 8 (Homo sapiens, UniProt Q9BY41).
T1 sequence (Q9BY41 whole entry): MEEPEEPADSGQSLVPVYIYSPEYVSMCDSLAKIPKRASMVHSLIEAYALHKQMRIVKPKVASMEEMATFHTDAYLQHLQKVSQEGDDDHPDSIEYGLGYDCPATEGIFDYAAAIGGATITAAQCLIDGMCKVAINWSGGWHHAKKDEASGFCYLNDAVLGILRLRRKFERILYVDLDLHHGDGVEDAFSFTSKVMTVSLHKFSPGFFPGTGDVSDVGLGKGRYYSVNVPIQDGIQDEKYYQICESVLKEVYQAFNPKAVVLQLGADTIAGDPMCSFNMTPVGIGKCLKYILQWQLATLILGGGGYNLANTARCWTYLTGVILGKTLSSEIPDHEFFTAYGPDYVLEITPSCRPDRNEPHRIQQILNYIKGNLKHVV
Put plainly: Inhibition of human recombinant HDAC8 using fluorogenic substrate measured after 30 mins.

For data set [1], the target named is T2, Protein deacetylase HDAC6 (Homo sapiens) (UniProt Q9UBN7).
T2 sequence (whole entry): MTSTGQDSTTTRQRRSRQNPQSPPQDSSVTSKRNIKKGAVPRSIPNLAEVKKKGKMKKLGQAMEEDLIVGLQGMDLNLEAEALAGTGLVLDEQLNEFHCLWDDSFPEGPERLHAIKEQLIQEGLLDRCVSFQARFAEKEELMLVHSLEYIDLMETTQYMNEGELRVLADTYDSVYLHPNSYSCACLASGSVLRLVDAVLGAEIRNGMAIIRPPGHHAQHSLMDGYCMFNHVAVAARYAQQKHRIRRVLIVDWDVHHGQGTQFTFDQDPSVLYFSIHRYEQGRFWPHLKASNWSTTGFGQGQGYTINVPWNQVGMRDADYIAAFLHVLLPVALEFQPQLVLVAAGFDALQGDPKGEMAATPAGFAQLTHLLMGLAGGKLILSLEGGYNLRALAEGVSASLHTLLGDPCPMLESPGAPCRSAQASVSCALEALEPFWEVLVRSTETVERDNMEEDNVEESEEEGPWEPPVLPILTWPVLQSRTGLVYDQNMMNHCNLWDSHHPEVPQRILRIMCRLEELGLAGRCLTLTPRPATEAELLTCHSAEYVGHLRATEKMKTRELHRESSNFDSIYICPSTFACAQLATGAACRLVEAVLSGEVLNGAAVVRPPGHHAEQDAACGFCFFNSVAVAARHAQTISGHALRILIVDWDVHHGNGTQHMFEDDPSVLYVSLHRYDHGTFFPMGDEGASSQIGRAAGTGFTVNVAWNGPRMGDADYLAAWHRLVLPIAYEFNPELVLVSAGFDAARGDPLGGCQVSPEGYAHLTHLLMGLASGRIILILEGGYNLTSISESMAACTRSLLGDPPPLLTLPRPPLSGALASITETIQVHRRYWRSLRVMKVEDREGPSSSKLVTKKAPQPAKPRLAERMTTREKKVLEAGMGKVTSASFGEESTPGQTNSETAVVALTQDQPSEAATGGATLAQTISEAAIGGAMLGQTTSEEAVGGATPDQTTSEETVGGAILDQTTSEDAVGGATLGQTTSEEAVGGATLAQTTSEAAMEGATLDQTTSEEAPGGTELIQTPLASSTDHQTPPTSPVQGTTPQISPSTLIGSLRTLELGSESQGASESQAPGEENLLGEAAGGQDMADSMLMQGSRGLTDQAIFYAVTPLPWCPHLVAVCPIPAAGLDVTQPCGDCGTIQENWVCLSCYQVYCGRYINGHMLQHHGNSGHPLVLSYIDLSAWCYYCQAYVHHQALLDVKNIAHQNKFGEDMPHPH
Briefly: Inhibition of HDAC6 in human HeLa cells assessed as acetylated histone H3 level at 0.3 to 3 uM measured after 24 hrs by immunoblotting analysis. Conditions: dose 0.3-3 µM. In kind it is cell-based.

The target of the next data set is T3, Histone deacetylase 11 (Homo sapiens, UniProt Q96DB2).
T3 sequence (Q96DB2 whole entry): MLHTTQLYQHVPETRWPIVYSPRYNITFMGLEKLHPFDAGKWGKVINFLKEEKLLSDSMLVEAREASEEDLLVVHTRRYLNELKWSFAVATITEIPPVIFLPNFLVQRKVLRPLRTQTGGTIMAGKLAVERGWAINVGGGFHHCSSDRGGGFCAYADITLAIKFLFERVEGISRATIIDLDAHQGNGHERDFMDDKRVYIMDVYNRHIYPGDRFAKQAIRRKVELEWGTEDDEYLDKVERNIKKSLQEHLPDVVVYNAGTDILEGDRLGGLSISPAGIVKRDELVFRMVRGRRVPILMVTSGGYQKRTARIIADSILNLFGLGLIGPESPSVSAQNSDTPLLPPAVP
Put plainly: Inhibition of human recombinant HDAC11 using fluorogenic substrate measured after 30 mins.

Data set [2] is described as follows: Cytotoxicity against human SH-SY5Y cells assessed as cell viability measured after 36 hrs by CCK8 assay.
In a further data set the target is Histone deacetylase 2 (Homo sapiens, UniProt Q92769). Put plainly: Inhibition of human recombinant HDAC2 using fluorogenic substrate measured after 30 mins.
Chain of Histone deacetylase 2 (Q92769 whole entry): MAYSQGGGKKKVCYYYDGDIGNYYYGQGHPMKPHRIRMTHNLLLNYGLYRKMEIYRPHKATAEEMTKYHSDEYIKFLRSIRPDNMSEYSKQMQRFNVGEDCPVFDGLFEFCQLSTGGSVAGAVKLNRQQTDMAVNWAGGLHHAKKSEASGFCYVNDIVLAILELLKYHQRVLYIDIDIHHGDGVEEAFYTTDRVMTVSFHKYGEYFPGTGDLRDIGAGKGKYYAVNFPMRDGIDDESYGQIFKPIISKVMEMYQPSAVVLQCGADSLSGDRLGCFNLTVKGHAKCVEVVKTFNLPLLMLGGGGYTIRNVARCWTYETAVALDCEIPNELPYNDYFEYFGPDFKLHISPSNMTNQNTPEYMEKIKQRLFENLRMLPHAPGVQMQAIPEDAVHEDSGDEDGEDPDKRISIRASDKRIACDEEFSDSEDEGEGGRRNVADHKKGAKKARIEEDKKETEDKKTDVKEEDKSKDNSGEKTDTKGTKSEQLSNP
Data set [3] concerns the target T2, Protein deacetylase HDAC6 (Homo sapiens). Put plainly: Inhibition of HDAC6 in human SH-SY5Y cells assessed as acetylated histone H3 level at 0.3 to 3 uM measured after 24 hrs by immunoblotting analysis. The data set is classed as cell-based. As to conditions: dose 0.3-3 µM.
In data set [4] the target is T4, Protein deacetylase HDAC6 (Homo sapiens, UniProt Q9UBN7).
T4 sequence (Q9UBN7 whole entry): T2 sequence (whole entry)
Put plainly: Inhibition of human recombinant HDAC6 using fluorogenic substrate measured after 30 mins.

Another data set deals with Histone deacetylase 4 (Homo sapiens, UniProt P56524). Briefly: Inhibition of human recombinant HDAC4 using fluorogenic substrate measured after 30 mins.
Chain of Histone deacetylase 4 (P56524 whole entry): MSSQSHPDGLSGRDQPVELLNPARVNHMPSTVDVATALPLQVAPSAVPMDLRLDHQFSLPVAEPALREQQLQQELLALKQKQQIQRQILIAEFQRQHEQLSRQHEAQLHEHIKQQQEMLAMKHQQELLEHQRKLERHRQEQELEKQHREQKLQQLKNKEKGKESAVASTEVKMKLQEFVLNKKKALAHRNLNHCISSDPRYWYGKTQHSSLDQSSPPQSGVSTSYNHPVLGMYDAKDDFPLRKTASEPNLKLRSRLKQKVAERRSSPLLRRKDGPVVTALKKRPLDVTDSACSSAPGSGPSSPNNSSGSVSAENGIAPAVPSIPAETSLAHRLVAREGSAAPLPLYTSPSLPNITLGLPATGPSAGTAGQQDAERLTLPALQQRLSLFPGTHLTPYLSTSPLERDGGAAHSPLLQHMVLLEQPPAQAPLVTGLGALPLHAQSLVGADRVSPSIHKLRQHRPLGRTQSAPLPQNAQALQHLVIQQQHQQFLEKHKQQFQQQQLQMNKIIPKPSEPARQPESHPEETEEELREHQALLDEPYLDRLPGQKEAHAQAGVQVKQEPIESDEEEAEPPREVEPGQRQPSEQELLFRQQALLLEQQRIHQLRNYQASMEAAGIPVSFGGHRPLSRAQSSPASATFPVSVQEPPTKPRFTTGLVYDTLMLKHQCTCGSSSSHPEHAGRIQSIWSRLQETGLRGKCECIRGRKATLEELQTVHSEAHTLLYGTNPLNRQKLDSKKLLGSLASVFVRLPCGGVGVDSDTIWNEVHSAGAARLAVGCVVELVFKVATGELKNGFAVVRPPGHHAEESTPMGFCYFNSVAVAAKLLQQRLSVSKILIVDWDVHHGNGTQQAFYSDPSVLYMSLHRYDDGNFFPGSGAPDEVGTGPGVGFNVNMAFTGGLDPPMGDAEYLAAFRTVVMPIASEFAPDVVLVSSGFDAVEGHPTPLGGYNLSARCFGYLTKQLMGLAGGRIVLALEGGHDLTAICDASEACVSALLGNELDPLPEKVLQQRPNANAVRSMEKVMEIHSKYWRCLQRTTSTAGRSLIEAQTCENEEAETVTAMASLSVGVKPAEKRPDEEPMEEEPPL

Chain of Histone deacetylase 1 (Q13547 whole entry): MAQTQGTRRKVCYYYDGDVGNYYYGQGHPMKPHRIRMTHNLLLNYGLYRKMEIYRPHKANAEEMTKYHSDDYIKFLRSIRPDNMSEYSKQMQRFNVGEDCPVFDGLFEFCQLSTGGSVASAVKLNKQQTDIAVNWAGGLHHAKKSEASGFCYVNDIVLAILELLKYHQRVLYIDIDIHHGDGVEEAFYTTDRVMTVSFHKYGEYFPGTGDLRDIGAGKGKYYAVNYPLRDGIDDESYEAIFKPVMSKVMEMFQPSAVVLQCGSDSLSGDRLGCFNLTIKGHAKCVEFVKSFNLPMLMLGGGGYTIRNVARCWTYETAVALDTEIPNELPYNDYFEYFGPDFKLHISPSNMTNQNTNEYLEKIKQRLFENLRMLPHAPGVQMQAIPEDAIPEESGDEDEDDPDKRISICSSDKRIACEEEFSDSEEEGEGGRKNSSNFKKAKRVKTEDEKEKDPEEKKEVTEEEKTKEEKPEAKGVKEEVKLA

As to `O=C(NO)c1ccc(Cn2cnc(-c3ccccc3F)n2)c(F)c1`, the IC50 at Histone deacetylase 1 was 299 nM; on Histone deacetylase 8, 813 nM; on Histone deacetylase 11, 8090 nM; at Histone deacetylase 2, 509 nM; in [4], 7.09 nM; on Histone deacetylase 4, 4040 nM. Besides, the inhibition result in data set [1] and in [3] was “Active” in each case. Further, the IC50 at 36 h in data set [2] amounted to 8210 nM.
Take `COc1cccc(-c2ncn(Cc3ccc(C(=O)NO)cc3)n2)c1`: the IC50 at Histone deacetylase 1 turned out to be 167 nM; in [4] it was 11.5 nM.
`O=C(NO)c1ccc(Cn2cnc(-c3cccc(O)c3)n2)cc1`: the figures for the IC50 (on Histone deacetylase 1; in data set [4]) were 197 nM and 12.3 nM, respectively.
On to `O=C(NO)c1ccc(Cn2cnc(-c3cccnc3)n2)cc1`, for which the IC50 at Histone deacetylase 1 was found to be 356 nM; in [4] it was 27.9 nM.
As for `O=C(NO)c1ccc(Cn2cnc(-c3ccccc3)n2)cc1`, the IC50 on Histone deacetylase 1 was 206 nM; in data set [4], 9.11 nM.
For `O=C(NO)c1ccc(Cn2ncnc2-c2ccccc2F)cc1`, the values for the IC50 (on Histone deacetylase 1; in [4]) were 605 nM and 11.8 nM, respectively.
For `O=C(NO)c1ccc(Cn2cnc(-c3cccc(F)c3)n2)cc1`, the IC50 at Histone deacetylase 1 is 268 nM; in data set [4] it was 8.73 nM.
Take `O=C(NO)c1cccc(Cn2ncnc2-c2ccccc2)c1`: the IC50 stood at 18300 nM on Histone deacetylase 1 and 152 nM in data set [4].
As for `O=C(NO)c1ccc(Cn2ncnc2-c2ccccc2)cc1`, the results for the IC50 (on Histone deacetylase 1; in data set [4]) were 341 nM and 16.9 nM, respectively.
The corresponding values for `O=C(NO)c1cccc(Cn2cnc(-c3ccccc3)n2)c1` are 38800 nM and 1300 nM.
`O=C(NO)c1ccc(Cn2cnc(-c3cccc(Cl)c3)n2)cc1`: the figures for the IC50 (on Histone deacetylase 1; in [4]) were 111 nM and 6.4 nM, respectively.
The corresponding values for `O=C(NO)c1ccc(Cn2cncn2)cc1` are 1440 nM and 91.8 nM.
The corresponding values for `O=C(NO)c1ccc(Cn2cnc(-c3cccc(OC(F)(F)F)c3)n2)cc1` are 212 nM and 13.3 nM.
Consider `O=C(NO)c1ccc(Cn2cnc(-c3c(F)cccc3F)n2)cc1`, for which the IC50 on Histone deacetylase 1 is 369 nM; in data set [4], 14.3 nM.
With `Cc1cccc(-c2ncn(Cc3ccc(C(=O)NO)cc3)n2)c1`, the IC50 on Histone deacetylase 1 is 168 nM; in data set [4], 14.7 nM.
The corresponding values for `O=C(NO)c1ccc(Cn2cnc(Br)n2)cc1` are 926 nM and 44.1 nM.
`O=C(NO)c1ccc(Cn2cnc(-c3ccc(F)cc3)n2)cc1`: the IC50 on Histone deacetylase 1 turned out to be 269 nM; in data set [4] it was 12.6 nM.
Take `O=C(NO)c1cccc(Cn2cncn2)c1`: the IC50 amounted to 23200 nM on Histone deacetylase 1 and 11400 nM in [4].
For the compound `CN1CCc2c(c3ccccc3n2Cc2ccc(C(=O)NO)cc2)C1` [TUBASTATIN A], the IC50 at 36 h in data set [2] came out at […].
Turning to `O=C(NO)c1ccc(Cn2cnc(-c3cccc(-c4ccccc4)c3)n2)cc1`, the results for the IC50 (on Histone deacetylase 1; in [4]) were 150 nM and 11.1 nM, respectively.
Take `O=C(NO)c1ccc(Cn2cnc(-c3cc(F)cc(F)c3)n2)cc1`: the IC50 at Histone deacetylase 1 was determined as 256 nM; in data set [4], 19.6 nM.
The corresponding values for `O=C(NO)c1ccc(Cn2cnc(-c3ccccc3)n2)nc1` are 431 nM and 20.6 nM.
Regarding `O=C(NO)c1ccc(Cn2cnc(-c3ccccc3)n2)c(F)c1`, the IC50 was 455 nM at Histone deacetylase 1 and 12.4 nM in data set [4].
For the compound `O=C(NO)c1ccc(Cn2cnc(-c3ccccc3F)n2)cc1`, the IC50 on Histone deacetylase 1 stood at 256 nM; in data set [4], 10 nM.
With `O=C(NO)c1ccc(Cn2cnc(-c3cccs3)n2)cc1`, the IC50 at Histone deacetylase 1 is 249 nM; in data set [4] it was 10.4 nM.
`O=C(NO)c1ccc(Cn2ncnc2-c2cccs2)cc1`: the IC50 on Histone deacetylase 1 stood at 427 nM; in data set [4], 18.3 nM.
For `O=C(NO)c1ccc(Cn2cnc(-c3cccc(C(F)(F)F)c3)n2)cc1`, the IC50 at Histone deacetylase 1 was found to be 122 nM; in data set [4], 4.57 nM.
